Values quoted from earlier work in patent US20130178603A1, “MULTI-MODE CANCER TARGETED NANOPARTICULATE SYSTEM AND A METHOD OF SYNTHESIZING THE SAME” (priority 2012, published 2013).

Settings: after I.V administration

In the case of `CN(Cc1cnc2nc(N)nc(N)c2n1)c1ccc(C(=O)N[C@@H](CCC(=O)O)C(=O)O)cc1` [MTX, methotrexate], the mean distribution half-life is given as 1.5 to 3.5 h.
